≈ marks a conversion by molar mass, not a printed value.
How the values were obtained:
Type in all cases: functional
Mycobacterium avium = assay: Minimum inhibitory concentration against Mycobacterium avium ATCC 49601
[1] = system: Mycobacterium tuberculosis; assay: Minimum inhibitory concentration against Mycobacterium tuberculosis sensitive clinical isolates
[2] = system: Mycobacterium tuberculosis; assay: Minimum inhibitory concentration against Mycobacterium tuberculosis H37Rv ATCC 27294
[3] = system: Mycobacterium intracellulare; assay: Minimum inhibitory concentration against Mycobacterium intracellular ATCC 13950
[4] = system: Mycobacterium tuberculosis; assay: Minimum inhibitory concentration against Mycobacterium tuberculosis sensitive clinical isolates; Range: 1-4 ug/ml
[5] = system: Mycobacterium tuberculosis; assay: Minimum inhibitory concentration against Mycobacterium tuberculosis sensitive clinical isolates; Range:4-16 ug/ml
[6] = system: Mycobacterium tuberculosis; assay: Minimum inhibitory concentration against Mycobacterium tuberculosis sensitive clinical isolates; Range: 0.125-0.25 ug/ml

Structure (SMILES) | MIC (Mycobacterium avium) | MIC [1] | MIC [2] | MIC [3] | MIC [4] | MIC [5] | MIC [6]
CC1=C(OCCCCN2CCOCC2)C(C)SC1=O (stereo not given) | > 16 mg/L | > 16 mg/L | > 16 mg/L | > 16 mg/L | – | – | –
CC1=C(OCCCCCN2CCOCC2)C(C)SC1=O (stereo not given) | > 16 mg/L | > 16 mg/L | > 16 mg/L | > 16 mg/L | – | – | –
COC(=O)CSCCCOC1=C(C)C(=O)SC1C (stereo not given) | > 16 mg/L | > 16 mg/L | > 16 mg/L | > 16 mg/L | – | – | –
COC(=O)CSCCCCCOC1=C(C)C(=O)SC1C (stereo not given) | > 16 mg/L | > 16 mg/L | > 16 mg/L | > 16 mg/L | – | – | –
CC1=C(OCCCCCCCCBr)C(C)SC1=O (stereo not given) | > 16 mg/L | > 16 mg/L | > 16 mg/L | > 16 mg/L | – | – | –
CC1=C(OCCCCCCBr)C(C)SC1=O (stereo not given) | > 16 mg/L | > 16 mg/L | > 16 mg/L | > 16 mg/L | – | – | –
CC1=C(OCCCCCCCCN2CCOCC2)C(C)SC1=O (stereo not given) | > 16 mg/L | > 16 mg/L | > 16 mg/L | > 16 mg/L | – | – | –
CC1=C(OCCCCCCCCCCN2CCN(C)CC2)C(C)SC1=O (stereo not given) | > 16 mg/L | > 16 mg/L | > 16 mg/L | > 16 mg/L | – | – | –
CC1=C(OCCCCN2CCN(C)CC2)C(C)SC1=O (stereo not given) | > 16 mg/L | > 16 mg/L | > 16 mg/L | > 16 mg/L | – | – | –
CC1=C(OCCCBr)C(C)SC1=O (stereo not given) | > 16 mg/L | > 16 mg/L | > 16 mg/L | > 16 mg/L | – | – | –
COC(=O)CSCCCCCCCCOC1=C(C)C(=O)SC1C (stereo not given) | 8 mg/L (≈ 22.2 µM) | – | 1 mg/L (≈ 2.77 µM) | 4 mg/L (≈ 11.1 µM) | 4 mg/L (≈ 11.1 µM) | – | –
CC1=C(OCCCN2CCN(C)CC2)C(C)SC1=O (stereo not given) | > 16 mg/L | > 16 mg/L | > 16 mg/L | > 16 mg/L | – | – | –
CC1=C(OCCCCCBr)C(C)SC1=O (stereo not given) | > 16 mg/L | > 16 mg/L | > 16 mg/L | > 16 mg/L | – | – | –
COC(=O)CSCCCCOC1=C(C)C(=O)SC1C (stereo not given) | > 16 mg/L | > 16 mg/L | > 16 mg/L | > 16 mg/L | – | – | –
COC(=O)CSCCCCCCOC1=C(C)C(=O)SC1C (stereo not given) | > 16 mg/L | > 16 mg/L | > 16 mg/L | > 16 mg/L | – | – | –
CC1=C(OCCCCCN2CCN(C)CC2)C(C)SC1=O (stereo not given) | > 16 mg/L | > 16 mg/L | > 16 mg/L | > 16 mg/L | – | – | –
CC1=C(OCCCCBr)C(C)SC1=O (stereo not given) | > 16 mg/L | > 16 mg/L | > 16 mg/L | > 16 mg/L | – | – | –
CC1=C(OCCCCCCCCN2CCN(C)CC2)C(C)SC1=O (stereo not given) | > 16 mg/L | > 16 mg/L | > 16 mg/L | > 16 mg/L | – | – | –
CC1=C(OCCCCCCCCCCBr)C(C)SC1=O (stereo not given) | > 16 mg/L | – | 4 mg/L (≈ 11 µM) | > 16 mg/L | – | 16 mg/L (≈ 44 µM) | –
CC1=C(OCCCCCCN2CCN(C)CC2)C(C)SC1=O (stereo not given) | > 16 mg/L | > 16 mg/L | > 16 mg/L | > 16 mg/L | – | – | –
CC1=C(OCCCCCCN2CCOCC2)C(C)SC1=O (stereo not given) | > 16 mg/L | > 16 mg/L | > 16 mg/L | > 16 mg/L | – | – | –
CC1=C(OCCCCCCCCCCN2CCOCC2)C(C)SC1=O (stereo not given) | > 16 mg/L | > 16 mg/L | > 16 mg/L | > 16 mg/L | – | – | –
COC(=O)CSCCCCCCCCCCOC1=C(C)C(=O)SC1C (stereo not given) | > 16 mg/L | > 16 mg/L | > 16 mg/L | > 16 mg/L | – | – | –
CC1=C(OCCCN2CCOCC2)C(C)SC1=O (stereo not given) | > 16 mg/L | > 16 mg/L | > 16 mg/L | > 16 mg/L | – | – | –
NNC(=O)c1ccncc1 [ISONIAZID] | > 16 mg/L | – | 0.25 mg/L (≈ 1.82 µM) | 8 mg/L (≈ 58.3 µM) | – | – | 0.25 mg/L (≈ 1.82 µM)
